# Results: PMC9048848 (RSC Advances, 2020)
# Molecular target: T1, PTP1B (Homo sapiens, UniProt P18031)
# T1 sequence (P18031 1-321): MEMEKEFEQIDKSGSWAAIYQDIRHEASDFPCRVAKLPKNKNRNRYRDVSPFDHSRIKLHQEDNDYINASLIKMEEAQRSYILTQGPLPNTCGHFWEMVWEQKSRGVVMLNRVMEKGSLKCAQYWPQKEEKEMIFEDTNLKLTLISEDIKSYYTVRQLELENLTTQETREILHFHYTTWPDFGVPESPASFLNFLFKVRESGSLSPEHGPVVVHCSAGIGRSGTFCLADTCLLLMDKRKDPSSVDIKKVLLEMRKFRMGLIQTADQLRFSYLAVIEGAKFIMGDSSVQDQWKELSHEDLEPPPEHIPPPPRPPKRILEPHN
# Assay: SPR
# Assay type: binding
smiles,measurement,value
"CCOCc1cc(O)c(O)c(Br)c1Cc1cc(O)c(O)c(Br)c1Br [BPN, 3,4-Dibromo-5-(2-bromo-6-(ethoxymethyl)-3,4-dihydroxybenzyl)benzene-1,2-diol]",Kd,3.3 µM
